Values of other authors in patent US20080221127A1, “PPAR ACTIVE COMPOUNDS” (Plexxikon Inc, priority 2007, published 2008).

Key:
PPARδ = biological target: T1, PPARδ (Homo sapiens, UniProt Q03181)
T1 sequence (Q03181 1-441): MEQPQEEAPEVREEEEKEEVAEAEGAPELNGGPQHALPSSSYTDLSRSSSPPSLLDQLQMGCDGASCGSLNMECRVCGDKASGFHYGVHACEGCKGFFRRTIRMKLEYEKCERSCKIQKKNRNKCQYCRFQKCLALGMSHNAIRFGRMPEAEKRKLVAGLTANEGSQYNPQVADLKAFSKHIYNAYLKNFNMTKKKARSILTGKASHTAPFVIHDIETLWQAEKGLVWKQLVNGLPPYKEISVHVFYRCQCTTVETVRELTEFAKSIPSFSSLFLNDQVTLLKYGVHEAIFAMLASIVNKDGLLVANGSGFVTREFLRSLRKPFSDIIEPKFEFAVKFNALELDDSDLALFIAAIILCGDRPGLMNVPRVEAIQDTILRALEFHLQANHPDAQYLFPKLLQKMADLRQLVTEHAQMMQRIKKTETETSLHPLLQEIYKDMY

murine PPARα = biological target: T2, murine PPARα (Mus musculus, UniProt P23204)
T2 sequence (P23204 1-468): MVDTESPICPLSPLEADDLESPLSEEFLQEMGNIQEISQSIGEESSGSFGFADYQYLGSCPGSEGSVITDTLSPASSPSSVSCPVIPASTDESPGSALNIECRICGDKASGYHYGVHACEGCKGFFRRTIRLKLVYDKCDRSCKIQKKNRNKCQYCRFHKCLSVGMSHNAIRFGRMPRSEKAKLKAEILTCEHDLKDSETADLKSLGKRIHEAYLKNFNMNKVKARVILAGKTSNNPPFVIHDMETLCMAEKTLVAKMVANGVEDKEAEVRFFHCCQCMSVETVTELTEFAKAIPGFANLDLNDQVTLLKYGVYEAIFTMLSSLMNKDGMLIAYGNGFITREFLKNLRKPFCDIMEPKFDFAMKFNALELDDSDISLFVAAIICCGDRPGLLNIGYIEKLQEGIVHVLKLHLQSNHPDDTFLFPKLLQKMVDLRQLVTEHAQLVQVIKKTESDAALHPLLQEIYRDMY

CCCc1c(OCCCOc2ccc(OCC(=O)O)cc2)ccc(C(C)=O)c1O [L-165041]
agonist selectivity for PPARδ over PPARγ (PPARδ): approximately 30 fold | activity on murine PPARα (murine PPARα): inactive
